Assay results taken from PubChem BioAssay AID272 (DTP/NCI, 2004).
Several values for one entry are separate records, joined by “and”; a condition that tells them apart may be missing. Identical values can stand only once. Inconclusive results are not listed.

Tested on: Lewis lung carcinoma i.m., BDF1 mice, T/C %
Assay: NCI In Vivo Anticancer Drug Screen. Data for tumor model Lewis Lung Carcinoma (intramuscular) in B6D2F1 (BDF1) mice
Settings: schedule: Q01DX011 (ip)
How it was run: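 Tumour-bearing mice were dosed with compound, and either their survival or their tumour size was measured. Results were expressed relative to vehicle-treated controls as T/C.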

[1] = endpoint: median survival time, dose: 0.5 mg/kg/injection, vehicle: saline, higher = longer survival

CC[C@](O)(C(=O)O)c1cc2n(c(=O)c1CO)Cc1cc3ccccc3nc1-2
T/C (endpoint: mean tumor weight, dose: 0.06 mg/kg/injection, vehicle: saline, higher = larger tumour): 95 % of control
T/C (endpoint: mean tumor weight, dose: 0.12 mg/kg/injection, vehicle: saline, higher = larger tumour): 96 % of control
T/C (endpoint: mean tumor weight, dose: 0.25 mg/kg/injection, vehicle: saline, higher = larger tumour): 101 % of control
T/C (endpoint: mean tumor weight, dose: 0.5 mg/kg/injection, vehicle: saline, higher = larger tumour): 91 % of control
T/C (endpoint: mean tumor weight, dose: 1.0 mg/kg/injection, vehicle: saline, higher = larger tumour): 106 % of control
T/C (endpoint: median survival time, dose: 0.06 mg/kg/injection, vehicle: saline, higher = longer survival): 105 % of control
T/C (endpoint: median survival time, dose: 0.12 mg/kg/injection, vehicle: saline, higher = longer survival): 116 % of control
T/C [1]: 118 % of control
T/C (endpoint: median survival time, dose: 1.0 mg/kg/injection, vehicle: saline, higher = longer survival): 102 % of control and 113 % of control and 124 % of control
T/C (endpoint: median survival time, dose: 2.0 mg/kg/injection, vehicle: saline, higher = longer survival): 214 % of control

CS(=O)(=O)OCCCNCCCOS(C)(=O)=O
T/C (endpoint: median survival time, dose: 10.0 mg/kg/injection, vehicle: saline, higher = longer survival): 110 % of control and 113 % of control and 119 % of control
T/C (endpoint: median survival time, dose: 20.0 mg/kg/injection, vehicle: saline, higher = longer survival): 109 % of control
T/C (endpoint: median survival time, dose: 40.0 mg/kg/injection, vehicle: saline, higher = longer survival): 92 % of control and 107 % of control

COc1c2c([n+](C)c3c(OC)cccc13)OC(C(C)C)C2 (stereo not given)
T/C (endpoint: mean tumor weight (est.), dose: 0.25 mg/kg/injection, vehicle: saline, higher = larger tumour): 85 % of control
T/C (endpoint: mean tumor weight (est.), dose: 0.5 mg/kg/injection, vehicle: saline, higher = larger tumour): 82 % of control
T/C (endpoint: median survival time, dose: 0.25 mg/kg/injection, vehicle: saline, higher = longer survival): 90 % of control
T/C [1]: 101 % of control

CN(C)c1nc(N(C)C)nc(N(C)C)n1
T/C (endpoint: mean tumor weight (est.), dose: 25.0 mg/kg/injection, vehicle: saline with Tween-80, higher = larger tumour): 68 % of control
T/C (endpoint: mean tumor weight (est.), dose: 50.0 mg/kg/injection, vehicle: saline with Tween-80, higher = larger tumour): 97 % of control
T/C (endpoint: mean tumor weight (est.), dose: 100.0 mg/kg/injection, vehicle: saline with Tween-80, higher = larger tumour): 37 % of control
T/C (endpoint: mean tumor weight, dose: 62.5 mg/kg/injection, vehicle: steriod suspending solution, higher = larger tumour): 68 % of control
T/C (endpoint: mean tumor weight, dose: 125.0 mg/kg/injection, vehicle: steriod suspending solution, higher = larger tumour): 63 % of control
T/C (endpoint: median survival time, dose: 62.5 mg/kg/injection, vehicle: steriod suspending solution, higher = longer survival): 100 % of control
T/C (endpoint: median survival time, dose: 125.0 mg/kg/injection, vehicle: steriod suspending solution, higher = longer survival): 104 % of control

CS(=O)(=O)OCC(O)C(O)COS(C)(=O)=O (stereo not given)
T/C (endpoint: median survival time, dose: 100.0 mg/kg/injection, vehicle: saline, higher = longer survival): 100 % of control
T/C (endpoint: median survival time, dose: 400.0 mg/kg/injection, vehicle: saline, higher = longer survival): 100 % of control

CCCCCCCCCCCCn1c(C)nc2ccccc21
T/C (endpoint: mean tumor weight (est.), dose: 0.63 mg/kg/injection, vehicle: saline, higher = larger tumour): 84 % of control
T/C (endpoint: mean tumor weight (est.), dose: 1.25 mg/kg/injection, vehicle: saline, higher = larger tumour): 89 % of control
T/C (endpoint: median survival time, dose: 0.63 mg/kg/injection, vehicle: saline, higher = longer survival): 104 % of control
T/C (endpoint: median survival time, dose: 1.25 mg/kg/injection, vehicle: saline, higher = longer survival): 98 % of control

Nc1ncn(C2OC(CO)C(O)C2O)c(=O)n1 (stereo not given)
T/C (endpoint: mean tumor weight, dose: 0.19 mg/kg/injection, vehicle: saline, higher = larger tumour): 105 % of control
T/C (endpoint: mean tumor weight, dose: 0.38 mg/kg/injection, vehicle: saline, higher = larger tumour): 82 % of control
T/C (endpoint: median survival time, dose: 0.1 mg/kg/injection, vehicle: saline, higher = longer survival): 93 % of control
T/C (endpoint: median survival time, dose: 0.19 mg/kg/injection, vehicle: saline, higher = longer survival): 104 % of control
T/C (endpoint: median survival time, dose: 0.2 mg/kg/injection, vehicle: saline, higher = longer survival): 106 % of control and 109 % of control
T/C (endpoint: median survival time, dose: 0.38 mg/kg/injection, vehicle: saline, higher = longer survival): 90 % of control and 110 % of control
T/C (endpoint: median survival time, dose: 0.4 mg/kg/injection, vehicle: saline, higher = longer survival): 105 % of control and 124 % of control
T/C (endpoint: median survival time, dose: 0.75 mg/kg/injection, vehicle: saline, higher = longer survival): 112 % of control
T/C (endpoint: median survival time, dose: 0.8 mg/kg/injection, vehicle: saline, higher = longer survival): 106 % of control
T/C (endpoint: median survival time, dose: 1.5 mg/kg/injection, vehicle: saline, higher = longer survival): 108 % of control
